Data reported in ChEMBL document CHEMBL1158604, “New pyrazolo[1,5a]pyrimidines as orally active inhibitors of Lck” (Bioorg Med Chem Lett, 2010).
Blank lines part the entries; values can stand above or below the molecule they belong to. Calls of active or inactive are those of the source. No cut-off for these calls is given here.

Legend:
[1] = target: Proto-oncogene tyrosine-protein kinase Src (Homo sapiens, UniProt P12931)
[2] = target: Tyrosine-protein kinase HCK (Homo sapiens, UniProt P08631)
[3] = target: T1, Tyrosine-protein kinase Lck (Homo sapiens, UniProt P06239)
[4] = target: Vascular endothelial growth factor receptor 2 (Homo sapiens, UniProt P35968)
Liver microsomes = details: rat
Description: Clearance in rat liver microsomes

in vitro = details: rat, liver microsomes
Description: Half life in rat liver microsomes

[5] = Oral bioavailability in rat; type: ADME, organism-based; details: in vivo
Mus musculus [6] = assay: Immunosuppressive activity in BALB/c mouse assessed as concanavalin A-induced T cell activation at 100 mg/kg, po relative to control; type: functional, organism-based; parameters: dose 100 mg/kg
Mus musculus [7] = assay: Immunosuppressive activity in BALB/c mouse assessed as CD3 antibody-induced IL2 production at 100 mg/kg, po relative to control; type: functional
Mus musculus [8] = assay: Immunosuppressive activity in BALB/c mouse assessed as CD3 antibody-induced IL2 production at 30 mg/kg, po relative to control; type: functional
Mus musculus [9] = assay: Immunosuppressive activity in BALB/c mouse assessed as CD3 antibody-induced IL2 production at 10 mg/kg, po relative to control; type: functional
[10] = target: Cyclin-dependent kinase 2/cyclin A (Homo sapiens, UniProt P24941); assay: Inhibition of CDK2/cyclinA; type: protein-complex assay
[11] = target: T1, Tyrosine-protein kinase Lck; assay: Inhibition of LCK in human Jurkat cells assessed as ZAP70 phosphorylation by FACS assay; type: cell-based
[12] = Clearance in rat; type: ADME, organism-based; details: in vivo
[13] = Half life in rat; type: ADME, organism-based; details: in vivo
Angiopoietin-1 receptor = Angiopoietin-1 receptor (Homo sapiens, UniProt Q02763); assay: Inhibition of tie2
[14] = target: Tyrosine-protein kinase ABL1 (Homo sapiens, UniProt P00519); assay: Inhibition of ABL
[15] = Inhibition of cABL T315 mutant
[16] = target: ALK tyrosine kinase receptor (Homo sapiens, UniProt Q9UM73); assay: Inhibition of Alk
[17] = target: Fibroblast growth factor receptor 3 (Homo sapiens, UniProt P22607); assay: Inhibition of FGFR3K
[18] = target: Receptor tyrosine-protein kinase erbB-2 (Homo sapiens, UniProt P04626); assay: Inhibition of Her2
[19] = target: Insulin-like growth factor 1 receptor (Homo sapiens, UniProt P08069); assay: Inhibition of IGF1R
Insulin receptor = Insulin receptor (Homo sapiens, UniProt P06213); assay: Inhibition of INSR
[20] = target: Tyrosine-protein kinase JAK1 (Homo sapiens, UniProt P23458); assay: Inhibition of JAK1
[21] = target: Tyrosine-protein kinase JAK2 (Homo sapiens, UniProt O60674); assay: Inhibition of JAK2
[22] = target: Tyrosine-protein kinase JAK3 (Homo sapiens, UniProt P52333); assay: Inhibition of JAK3
[23] = target: Mast/stem cell growth factor receptor Kit (Homo sapiens, UniProt P10721); assay: Inhibition of cKIt
[24] = target: Hepatocyte growth factor receptor (Homo sapiens, UniProt P08581); assay: Inhibition of cMet
[25] = target: Platelet-derived growth factor receptor alpha (Homo sapiens, UniProt P16234); assay: Inhibition of PDGFRalpha
[26] = target: RAC-alpha serine/threonine-protein kinase (Homo sapiens, UniProt P31749); assay: Inhibition of PKBalpha
[27] = target: Proto-oncogene tyrosine-protein kinase receptor Ret (Homo sapiens, UniProt P07949); assay: Inhibition of Ret
[28] = target: Tyrosine-protein kinase ZAP-70 (Homo sapiens, UniProt P43403); assay: Inhibition of ZAP70
[29] = Volume of distribution in rat; type: ADME, organism-based; details: in vivo

Structure (SMILES): CC(C)COC(=O)Nc1ccc(-c2cnc3c(-c4cccc(N5CCN(S(C)(=O)=O)CC5)c4)cnn3c2N)cc1
- IC50 [3]: 209 nM
- IC50 [1]: > 1000 nM
- IC50 [2]: 676 nM
- IC50 [4]: > 10000 nM
- CL (Liver microsomes): 58.4 µL/min
- half-life (in vitro): 23.7 min

Structure (SMILES): CN1CCN(c2cccc(-c3cnn4c(N)c(-c5ccc(NC(=O)CCC6CCCC6)cc5)cnc34)c2)CC1
- IC50 [1]: 135 nM
- IC50 [2]: 37 nM
- IC50 [4]: 690 nM

Structure (SMILES): CN1CCN(c2ccc(-c3cnn4c(N)c(-c5ccc(NC(=O)N(C)C6CCCCC6)cc5)cnc34)cc2)CC1
- IC50 [1]: 497 nM
- IC50 [2]: 178 nM
- IC50 [4]: 435 nM

Structure (SMILES): CN1CCN(c2cccc(-c3cnn4c(N)c(-c5ccc(O)cc5)cnc34)c2)CC1
- IC50 [3]: 30 nM
- IC50 [1]: 442 nM
- IC50 [2]: 342 nM
- IC50 [4]: 470 nM

Structure (SMILES): Cc1cc(NC(=O)OCC(C)C)ccc1-c1cnc2c(-c3cccc(N4CCN(C)CC4)c3)cnn2c1N
- IC50 [3]: 23 nM
- IC50 [1]: 462 nM
- IC50 [2]: 456 nM
- IC50 [4]: 3400 nM

Structure (SMILES): CC(C)COC(=O)Nc1ccc(-c2cnc3c(-c4cccc(N5CCOCC5)c4)cnn3c2N)cc1
- IC50 [3]: 699 nM
- IC50 [1]: > 1000 nM
- IC50 [2]: > 1000 nM
- IC50 [4]: 7350 nM

Structure (SMILES): CN1CCN(c2cccc(-c3cnn4c(N)c(-c5ccc(NC(=O)NCC6CCCCC6)cc5)cnc34)c2)CC1
- IC50 [1]: 227 nM
- IC50 [2]: 70 nM
- IC50 [4]: 130 nM

Structure (SMILES): Cc1nc2c(-c3cccc(N4CCN(C)CC4)c3)cnn2c(N)c1-c1ccc(NC(=O)OCC(C)C)cc1
- IC50 [3]: 116 nM
- IC50 [1]: > 1000 nM
- IC50 [2]: > 1000 nM
- IC50 [4]: > 10000 nM

Structure (SMILES): CN1CCN(c2cccc(-c3cnn4c(N)c(-c5ccc(NS(=O)(=O)c6cccc(Cl)c6Cl)cc5)cnc34)c2)CC1
- IC50 [3]: 28 nM
- IC50 [1]: > 1000 nM
- IC50 [2]: > 1000 nM
- IC50 [4]: 5400 nM

Structure (SMILES): COCCN1CCN(c2ccc(-c3cnn4c(N)c(-c5ccc(NC(=O)OCC(C)C)cc5)cnc34)cc2)CC1
- IC50 [3]: 37 nM
- IC50 [1]: 1000 nM
- IC50 [2]: 349 nM
- IC50 [4]: 2200 nM

Structure (SMILES): CN1CCN(c2ccc(-c3cnn4c(N)c(-c5ccc(NC(=O)NCC6CCCCC6)cc5)cnc34)cc2)CC1
- IC50 [1]: 143 nM
- IC50 [2]: 21 nM

Structure (SMILES): CN1CCN(c2ccc(-c3cnn4c(N)c(-c5cccc(O)c5)cnc34)cc2)CC1
- IC50 [3]: 8 nM
- IC50 [1]: 2 nM
- IC50 [2]: 8 nM
- IC50 [4]: 96 nM

Structure (SMILES): CN1CCN(c2cccc(-c3cnn4c(N)c(-c5ccc(NC(=O)Oc6ccccc6)cc5)cnc34)c2)CC1
- IC50 [1]: 688 nM
- IC50 [2]: 193 nM
- IC50 [4]: 4100 nM

Structure (SMILES): CC(C)COC(=O)Nc1ccc(-c2cnc3c(-c4cccc(N5CCN(C)CC5)c4)cnn3c2N)cc1
- IC50 [1]: 1710 nM
- IC50 [2]: 594 nM
- IC50 [4]: 5350 nM
- CL (Liver microsomes): 612.5 µL/min
- half-life (in vitro): 2.3 min

Structure (SMILES): CN1CCN(c2ccc(-c3cnn4c(N)c(-c5ccc(NC(=O)Oc6ccccc6)cc5)cnc34)cc2)CC1
- IC50 [1]: 394 nM
- IC50 [2]: 88 nM
- IC50 [4]: 1000 nM

Structure (SMILES): CC(C)COC(=O)Nc1ccc(-c2cnc3c(-c4cccc(N5CCNCC5)c4)cnn3c2N)cc1
- IC50 [3]: 7 nM
- IC50 [1]: 642 nM
- IC50 [2]: 310 nM
- IC50 [4]: 2100 nM
- CL (Liver microsomes): 29 µL/min
- half-life (in vitro): 48 min

Structure (SMILES): CN1CCN(c2ccc(-c3cnn4c(N)c(-c5ccc(O)cc5)cnc34)cc2)CC1
- IC50 [3]: 36 nM
- IC50 [1]: 396 nM
- IC50 [2]: 85 nM
- IC50 [4]: 1300 nM

Now from value to molecule, other results behind:

- IC50 [1]: > 1000 nM
- IC50 [2]: 215 nM
Structure (SMILES): CN1CCN(c2ccc(-c3cnn4c(N)c(-c5ccc(NC(=O)Nc6ccccc6Cl)cc5)cnc34)cc2)CC1

- IC50 [1]: 1000 nM
- IC50 [2]: 256 nM
- IC50 [4]: 8300 nM
Structure (SMILES): CN1CCN(c2ccc(-c3cnn4c(N)c(-c5ccc(NC(=O)c6ccc(C(F)(F)F)cc6)cc5)cnc34)cc2)CC1

- IC50 [1]: 554 nM
- IC50 [2]: 110 nM
- IC50 [4]: 6000 nM
Structure (SMILES): CN1CCN(c2cccc(-c3cnn4c(N)c(-c5ccc(NC(=O)N(C)C6CCCCC6)cc5)cnc34)c2)CC1

- IC50 [3]: 7 nM
- IC50 [1]: 762 nM
- IC50 [2]: 270 nM
- IC50 [4]: 1900 nM
- CL (Liver microsomes): 11.2 µL/min
- half-life (in vitro): 124 min
Structure (SMILES): CC(C)COC(=O)Nc1ccc(-c2cnc3c(-c4cccc(N5CCN(C(=O)CN)CC5)c4)cnn3c2N)cc1

- bioavailability [5]: 95%
- IC50 [10]: > 10 µM
- IC50 [11]: 107 nM
- clearance [12]: 32.1 mL/min/kg
- half-life [13]: 342 min
- IC50 (Angiopoietin-1 receptor): 1000 nM
- IC50 [14]: 40 nM
- IC50 [15]: 3.25 µM
- IC50 [16]: > 10 µM
- IC50 [17]: > 10 µM
- IC50 [18]: > 10 µM
- IC50 [19]: > 10 µM
- IC50 (Insulin receptor): > 10 µM
- IC50 [20]: > 10 µM
- IC50 [21]: > 10 µM
- IC50 [22]: > 10 µM
- IC50 [23]: 89 nM
- IC50 [24]: > 10 µM
- IC50 [25]: 74 nM
- IC50 [26]: > 10 µM
- IC50 [27]: 4.7 µM
- IC50 [28]: > 10 µM
- Vd [29]: 6.42 L/kg
- IC50 [3]: 22 nM
- IC50 [1]: 662 nM
- IC50 [2]: 181 nM
- IC50 [4]: 4230 nM
- CL (Liver microsomes): 161.2 µL/min
- half-life (in vitro): 8.6 min
Structure (SMILES): CC(C)COC(=O)Nc1ccc(-c2cnc3c(-c4ccc(N5CCN(C)CC5)cc4)cnn3c2N)cc1
- Activity (Mus musculus [6]): Active
- inhibition in vivo at 100 mg/kg (Mus musculus [7]): 57%
- inhibition in vivo at 30 mg/kg (Mus musculus [8]): 21%
- inhibition in vivo at 10 mg/kg (Mus musculus [9]): -7%

- IC50 [3]: 546 nM
- IC50 [1]: > 1000 nM
- IC50 [2]: > 1000 nM
- IC50 [4]: 9200 nM
Structure (SMILES): COc1cc(-c2cnc3c(-c4cccc(N5CCN(C)CC5)c4)cnn3c2N)ccc1NC(=O)OCC(C)C

- IC50 [1]: 142 nM
- IC50 [2]: 14 nM
- IC50 [4]: 1020 nM
Structure (SMILES): CN1CCN(c2ccc(-c3cnn4c(N)c(-c5ccc(NC(=O)CCC6CCCC6)cc5)cnc34)cc2)CC1

- IC50 [1]: 1000 nM
- IC50 [2]: 172 nM
Structure (SMILES): CN1CCN(c2cccc(-c3cnn4c(N)c(-c5ccc(NC(=O)Nc6ccccc6Cl)cc5)cnc34)c2)CC1

- IC50 [3]: > 1000 nM
- IC50 [1]: > 1000 nM
- IC50 [2]: > 1000 nM
- IC50 [4]: 500 nM
Structure (SMILES): Cc1nn2c(N)c(-c3cccc(O)c3)cnc2c1-c1ccc(N2CCN(C)CC2)cc1

- IC50 [1]: > 1000 nM
- IC50 [2]: 295 nM
- IC50 [4]: 2300 nM
Structure (SMILES): CN1CCN(c2cccc(-c3cnn4c(N)c(-c5ccc(NC(=O)c6ccc(C(F)(F)F)cc6)cc5)cnc34)c2)CC1
